# Test results: US6287792A, “Drug delivery of antisense oligonucleotides and peptides to tissues in vivo and to cells using avidin-biotin technology” (The Regents of the University of California, priority 1991, dated 2001)
# Test system: isolated bovine brain capillaries (uptake of avidin-biotin complex)
# Experiment: uptake of the avidin-biotin complex by isolated bovine brain capillaries in vitro
# Type: cell-based
# Conditions: 50 mM, 23° C., thirty minutes
# Procedure: The in vitro studies were performed with isolated bovine brain capillaries used as an in vitro model of blood brain barrier (BBB) transport (16). […] The modest uptake of radioactivity in the presence of buffer alone represents uptake of [P^32 ] nucleotide or phosphate ion generated by capillary nuclease or phosphatase degradation of the antisense oligonucleotide. All incubations were performed at 23° C. for thirty minutes with brain capillary (about 100 μg protein per flask).
structure (smiles),measurement,value
CO[C@H]1O[C@H](CO)[C@@H](O)[C@H](O)[C@@H]1O [α-methylmannoside],inhibition of the uptake of the avidin-biotin complex by brain capillaries,no significant inhibition
